From patent US7534871B2, “Preparation and use of carbohydrate-based bicyclic ring structures with antimicrobial and cytostatic activity” (Kemin Pharma B.V.B.A., priority 2004, dated 2009)
Converted amounts (≈) assume the structure as drawn.

Tests used:
HIV-1 (IIIB) = assay: microbe, parasite or virus in culture; type: cell-based; details: Human immunodeficiency virus 1, IIIB, CCRF-CEM; concentration required to inhibit HIV-induced cytopathicity in human CEM cell cultures by 50%
HIV-2 (ROD) = assay: Anti-viral activity: HIV-2-induced cytopathicity in human CEM cell cultures; type: cell-based; details: Human immunodeficiency virus 2, CCRF-CEM; concentration required to inhibit HIV-induced cytopathicity in human CEM cell cultures by 50%
HSV-1 (KOS) = assay: Anti-viral activity: HSV-1-induced cytopathicity in human embryo fibroblast E6SM cell cultures; type: cell-based, herpes simplex virus (HSV); details: Human alphaherpesvirus 1, 50%
HSV-2 (G) = assay: Anti-viral activity: HSV-2-induced cytopathicity in human embryo fibroblast E6SM cell cultures; type: cell-based, herpes simplex virus (HSV); details: Human alphaherpesvirus 2, 50%
VV = assay: microbe, parasite or virus in culture; type: cell-based; details: Orthopoxvirus vaccinia, E6SM, read-out: EC50 VV (E6SM)
VZV OKA = assay: microbe, parasite or virus in culture; type: cell-based, varicella zoster virus (VZV); details: Human alphaherpesvirus 3, HEL, read-out: EC50 VZV (HEL) OKA
VZV YS = assay: Anti-viral activity: VZV-induced plaque formation in HEL cell cultures, YS strain; type: cell-based, varicella zoster virus (VZV); details: Human alphaherpesvirus 3, VZV-induced plaque formation in human embryonic lung HEL cell cultures, 50%
CMV AD-169 strain = assay: Anti-CMV activity: plaque reduction in HEL cells, AD-169 strain; type: cell-based, human cytomegalovirus (CMV); details: Human betaherpesvirus 5, AD169, HEL; Table 2; reduce virus plaque formation by 50%; virus input 100 PFU; read-out: IC50 CMV AD-169 Strain
[1] = tested on: murine leukemia cells (L1210/0); assay: Cytostatic activity: inhibition of proliferation of L1210/0 cells; type: cell-based; details: Mus musculus, L1210/0; 50% inhibitory concentration, cell proliferation; read-out: IC50 L1210/0
Experimental: (§1) The compounds were tested for anti-tumor activity via the inhibitory effects on the proliferation of murine leukemia cells (L1210/0), murine mammary carcinoma cells (FM3A), human T-lymphocyte cells (Molt4/C8, CEM/0) and human cervix carcinoma cells (HeLa).

[2] = tested on: murine mammary carcinoma cells (FM3A); assay: Cytostatic activity: inhibition of proliferation of FM3A cells; type: cell-based; details: Mus musculus, 50% inhibitory concentration, cell proliferation, read-out: IC50 FM3A/0
Experimental: as §1

[3] = tested on: human T-lymphocyte cells (Molt4/C8); assay: Cytostatic activity: inhibition of proliferation of Molt4/C8 cells; type: cell-based; details: Molt4/C8, 50% inhibitory concentration, cell proliferation, read-out: IC50 Molt4/C8
Experimental: as §1

[4] = tested on: human T-lymphocyte cells (CEM/0); assay: Cytostatic activity: inhibition of proliferation of CEM/0 cells; type: cell-based; details: CCRF-CEM, 50% inhibitory concentration, cell proliferation, read-out: IC50 CEM/0
Experimental: as §1

[5] = tested on: human cervix carcinoma cells (HeLa); assay: Cytostatic activity: inhibition of proliferation of HeLa cells; type: cell-based; details: 50% inhibitory concentration, cell proliferation
Experimental: as §1

[6] = tested on: E. faecalis ATTC29212 LMG 8222; assay: Anti-bacterial activity, Bioscreen C growth curve: E. faecalis; type: cell-based; details: Enterococcus faecalis, LMG8222, 35° C., 16 hours, negative control = 100, read-out: % of growth at 25 PPM compared to the negative control, E. faecalis ATTC29212 LMG 8222
Experimental: (§2) For the determination of the anti-bacterial and anti-fungal activity the Bioscreen C Analyser Labsystems, Finland, was used. This is an automated reader-incubator. It measures growth continuously by vertical photometry (optical density), processes the data and provides a print out of the results. The area under the growth curve is automatically determined via the Biolink software.
(§3) The inoculum size of the bacteria is standardized to approximately 5×10^5 CFU/ml.
(§4) For bacteria, the 100-honey-well plates containing test chemical, Mueller-Hinton broth and inoculum (=sample) are incubated at 35° C. for 16 hours. Also wells without inoculum are incubated (=blanco). Yeasts are incubated 35° C. for 24 hours in RPMI 1640+MOPS buffer at 165 mM. Moulds also in RPMI 1640+MOPS buffer at 165 mM are incubated 25° C. for 5 days. All micro-organisms are screened against a known concentration of the reference antibiotics or antimycotics such as vancomycin, penicillin G, gentamicin or amphotericin B. The growth curve and the area under the growth curve can be determined using the Biolink software; this is illustrated in FIG. 1.
(§5) The area of the blanco is subtracted from the area of the sample, this number (delta) gives us an indication of the biological activity of the molecules tested and can be expressed as a % of growth at a specific dose compared to a negative control that has a value of 100, illustrated in FIG. 2. Screening of each dose of a specific compound is repeated 5 times. The dose used for all new molecules in all tests is 25 PPM or 25 μg/ml.
(§6) In Table 4 the results of the anti-bacterial activity is given for the new molecules. The micro-organisms used are Staphylococcus aureus, MRSA, VRE, Enterococcus faecalis, Salmonella typhimurium and Pseudomonas aeruginosa.

VRE ATCC700221 = assay: Anti-bacterial activity, Bioscreen C growth curve: VRE; type: cell-based, vancomycin-resistant Enterococcus (VRE); details: Enterococcus, 35° C., 16 hours, negative control = 100, read-out: % of growth at 25 PPM compared to the negative control, VRE ATCC700221
Experimental: as §2, §3, §4, §5, §6

[7] = tested on: S. aureus ATTC29213 LMG10147; assay: Anti-bacterial activity, Bioscreen C growth curve: S. aureus; type: cell-based; details: Staphylococcus aureus, 35° C., 16 hours, negative control = 100, read-out: % of growth at 25 PPM compared to the negative control, S. aureus ATTC29213 LMG10147
Experimental: as §2, §3, §4, §5, §6

MRSA ATCC33591 = assay: Anti-bacterial activity, Bioscreen C growth curve: MRSA; type: cell-based, methicillin-resistant Staphylococcus aureus (MRSA); details: Staphylococcus aureus, ATCC 33591 / LMG10147 / MRSA; 25 PPM; 35° C., 16 hours; negative control = 100; read-out: % of growth at 25 PPM compared to the negative control, MRSA ATCC33591 LMG10147
Experimental: as §2, §3, §4, §5, §6

[8] = tested on: P. aeruginosa ATCC27853 LMG16217; assay: Anti-bacterial activity, Bioscreen C growth curve: P. aeruginosa; type: cell-based, Pseudomonas aeruginosa; details: Pseudomonas aeruginosa; 25 PPM; 35° C., 16 hours; negative control = 100; read-out: % of growth at 25 PPM compared to the negative control, P. aeruginosa ATCC27853 LMG16217
Experimental: as §2, §3, §4, §5, §6

[9] = tested on: S. typhimurium ATTC700408; assay: Anti-bacterial activity, Bioscreen C growth curve: S. typhimurium; type: cell-based; details: Salmonella enterica, LMG16217 / TYPHIMURIUM, 35° C., 16 hours, negative control = 100, read-out: % of growth at 25 PPM compared to the negative control, S. typhimurium ATTC700408 LMG16217
Experimental: as §2, §3, §4, §5, §6

[10] = tested on: Candida albicans IHEM 10284 - ATCC 24433; assay: Anti-fungal activity, Bioscreen C growth curve: Candida albicans (yeast); type: cell-based; details: Candida albicans, ATCC24433; 25 PPM; 35° C., 24 hours; negative control = 100; read-out: % of growth at a dose of 25 PPM compared to the negative control, Candida albicans IHEM 10284 - ATCC 24433
Experimental: as §2
The inoculum size of the yeast is standardized to 0.5-2.5×10^3 CFU/ml.
as §4, §5
(§7) In Table 5 the anti-fungal activity is given for the new molecules. The micro-organisms used were Candida albicans (a typical yeast) and Microsporum gypseum (a typical mold).
as §2, with “Also for” for “For”, “the” for “the anti-bacterial and”, “Labsystems Oy, Finland” for “Labsystems, Finland,”, “used.” for “used. This is an automated reader-incubator.”
(§8) The inoculum size of the yeast is standardized to 0.5-2.5×10^3 CFU/ml. The inoculum size of the mould is standardized to 0.4-5.0×10^4 CFU/ml. Yeasts are incubated 35° C. for 24 hours in RPMI 1640+MOPS buffer at 165 mM. Moulds also in RPMI 1640+MOPS buffer at 165 mM are incubated 25° C. for 5 days.
(§9) As a control, all micro-organisms are screened against some reference antibiotics with known MIC. Screening of each dose of a specific compound is repeated 5 times.

[11] = tested on: Microsporum gypseum IHEM 3999 - ATCC 14683; assay: Anti-fungal activity, Bioscreen C growth curve: Microsporum gypseum (mold); type: cell-based; details: Nannizzia gypsea, ATCC14683, 120 h; 25 PPM; 25° C., 5 days; negative control = 100; read-out: % of growth at a dose of 25 PPM compared to the negative control, Microsporum gypseum IHEM 3999 - ATCC 14683
Experimental: as §2
The inoculum size of the mould is standardized to 0.4-5.0×10^4 CFU/ml.
as §4, §5, §7
as §2, with “Also for” for “For”, “the” for “the anti-bacterial and”, “Labsystems Oy, Finland” for “Labsystems, Finland,”, “used.” for “used. This is an automated reader-incubator.”
as §8, §9

## CO[C@@H]1[C@@H](OC)[C@H](Sc2ccccc2)O[C@@H]2COC(=O)CC/C=C/CCC(=O)O[C@@H]12 [KPE00001002]
HIV-1 (IIIB)
  EC50: > 100 µg/mL
HIV-2 (ROD)
  EC50: > 20 µg/mL
HSV-1 (KOS)
  EC50: > 16 µg/mL
HSV-2 (G)
  EC50: > 16 µg/mL
VV
  EC50: > 16 µg/mL
VZV OKA
  EC50: > 20 µg/mL
VZV YS
  EC50: > 50 µg/mL
CMV AD-169 strain
  IC50: > 20 µg/mL
[1]
  IC50: > 200 µg/mL
[2]
  IC50: > 200 µg/mL
[3]
  IC50: > 200 µg/mL
[4]
  IC50: > 200 µg/mL
[5]
  IC50: > 200 µg/mL
[6]
  activity at 25 ppm: 94.9%
VRE ATCC700221
  activity at 25 ppm: 94%
[7]
  activity at 25 ppm: 93.2%
MRSA ATCC33591
  activity at 25 ppm: 100%
[8]
  activity at 25 ppm: 92.2%
[9]
  activity at 25 ppm: 93.7%
[10]
  activity at 25 ppm: 105%
[11]
  activity at 25 ppm: 64%

## CO[C@@H]1[C@@H](OC)[C@H](Sc2ccccc2)O[C@@H]2COCC=CCO[C@@H]12 [KPE00001014]
HIV-1 (IIIB)
  EC50: > 100 µg/mL
HIV-2 (ROD)
  EC50: > 100 µg/mL
HSV-1 (KOS)
  EC50: > 400 µg/mL
HSV-2 (G)
  EC50: 240 µg/mL (≈ 681 µM)
VV
  EC50: > 400 µg/mL
VZV OKA
  EC50: > 50 µg/mL
VZV YS
  EC50: > 50 µg/mL
CMV AD-169 strain
  IC50: > 50 µg/mL
[1]
  IC50: > 200 µg/mL
[2]
  IC50: > 200 µg/mL
[3]
  IC50: > 200 µg/mL
[4]
  IC50: > 200 µg/mL
[5]
  IC50: > 200 µg/mL
[6]
  activity at 25 ppm: 95%
VRE ATCC700221
  activity at 25 ppm: 88.4%
[7]
  activity at 25 ppm: 105%
MRSA ATCC33591
  activity at 25 ppm: 113%
[8]
  activity at 25 ppm: 96.7%
[9]
  activity at 25 ppm: 87.2%
[10]
  activity at 25 ppm: 96%
[11]
  activity at 25 ppm: 69%

## CO[C@@H]1[C@@H](OC)[C@H](c2ccccc2)O[C@@H]2COC(=O)CC/C=C/CCC(=O)O[C@@H]12 [KPE00001018]
HIV-1 (IIIB)
  EC50: > 20 µg/mL
HIV-2 (ROD)
  EC50: > 100 µg/mL
HSV-1 (KOS)
  EC50: > 16 µg/mL
HSV-2 (G)
  EC50: > 16 µg/mL
VV
  EC50: > 16 µg/mL
VZV OKA
  EC50: > 50 µg/mL
VZV YS
  EC50: > 50 µg/mL
CMV AD-169 strain
  IC50: > 20 µg/mL
[1]
  IC50: > 200 µg/mL
[2]
  IC50: > 200 µg/mL
[3]
  IC50: > 200 µg/mL
[4]
  IC50: 132 ± 13 µg/mL (≈ 326 µM)
[5]
  IC50: > 200 µg/mL
[6]
  activity at 25 ppm: 94.9%
VRE ATCC700221
  activity at 25 ppm: 94.5%
[7]
  activity at 25 ppm: 100%
MRSA ATCC33591
  activity at 25 ppm: 100%
[8]
  activity at 25 ppm: 59.8%
[9]
  activity at 25 ppm: 96.6%
[10]
  activity at 25 ppm: 93.5%
[11]
  activity at 25 ppm: 79%
